Test results: patent publication EP0555116B1, “Compositions based on antiseptics and their applications” (HUTCHINSON, priority 1992, dated 1993)
Like-named read-outs stand apart in the source and are kept apart here.

Legend:
spermatozoïdes = experiment: Spermicidal action: vitality of spermatozoa (eosin-nigrosin, 100 spermatozoa examined); assay type: cell-based; details: Homo sapiens, Sperm; for viability at 0.4 %: read-out: vitalité des spermatozoïdes, solution 0,4 %; for viability at 0.6 %: read-out: vitalité des spermatozoïdes, solution 0,6 %; for viability at 0.8 %: read-out: vitalité des spermatozoïdes, solution 0,8 %; for viability at 1 %: read-out: vitalité des spermatozoïdes, solution 1 %; for viability at 0.5 %: solution 0,5 %, read-out: vitalité des spermatozoïdes
Excerpt: Les différents échantillons de sperme (une goutte de sperme/échantillon) sont obtenus à partir de volontaires sains.
Une goutte de sperme est traitée par l'éosinenigrosine. Un frottis est ensuite réalisé et cent spermatozoïdes sont examinés au microscope. Les cellules mortes sont colorées en rouge, soit totalement, soit partiellement. Les cellules vivantes sont incolores.
Les substances étudiées ont été, le Bardac® et le digluconate de chlorhexidine, testés seuls et en association conformément à l'invention. Les différentes étapes du protocole sont indiquées aux Tableaux IV à VI.
Le temps de contact maximum des différentes substances et du sperme a été limité à 3 minutes afin de garantir l'efficacité de la méthode dans les conditions d'utilisation. La concentration des solutions actives dans le sperme a été limitée à 10 % afin de diminuer les risques de toxicité des produits pour les muqueuses. TABLEAU IV

E. coli ATCC 11229 = experiment: Disinfection time test (Essai 2, Tables D-F), reaction at 22°, subcultures 72 h at 37°C; assay type: cell-based, Escherichia coli
Description: Un autre essai a été réalisé à partir des solutions suivantes : • 100 ml d'une solution à 0,1 % de digluconate de chlorhexidine (pH 6) et • 100 ml d'une solution à 0,1 % de Bardac 22®.
Les tests ont été réalisés conformément au protocole décrit dans le Chapitre I/2.1 et 2.2 de Richtlinien für die Prüfung und Bewertung chemischer Desinfektionsverfahren der DGHM, Stand 1.1., 1981).
Les tests dont les résultats sont illustrés aux Tableaux D, E et F ont été réalisés à une température de réaction de 22° avec une incubation des sous-cultures 72 heures à 37°C avec comme substances inactivantes : Tween® 80 3 % + saponine 3 % + cystéine 0,1 % + histidine 0,1 %; ces Tableaux illustrent respectivement l'activité bactéricide et fongicide d'une solution aqueuse à 0,1 % de digluconate de chlorhexidine, d'une solution aqueuse à 0,1 % de Bardac 22® et d'un mélange à part égale des deux composés et montrent l'action des antiseptiques précités, en fonction du temps de contact, et font apparaître la même synergie d'action de l'association que ci-dessus, dans la mesure où l'association des deux composés permet de diminuer significativement leur concentration, pour l'obtention d'un même effet. TABLEAU D

[1] = 1 min, 1 Min, 5 % dans le sperme
[2] = 1 min, 1 Min, 10 % dans le sperme
[3] = 0.05 h, 3 Min, 5 % dans le sperme
[4] = 0.05 h, 3 Min, 10 % dans le sperme

## CCCCCCCCCC[N+](C)(C)CCCCCCCCCC [Bardac®, chlorure de didécyldiméthylammonium]
spermatozoïdes; [1]
  viability at 0.4 %: 10.7 ± 7.6%
  viability at 0.6 %: 10.5 ± 9.7%
  viability at 0.8 %: 9.7 ± 10.2%
  viability at 1 %: 0%
spermatozoïdes; [2]
  viability at 0.4 %: 5 ± 6.4%
  viability at 0.6 %: 9.2 ± 12.9%
  viability at 0.8 %: 1.8 ± 2.5%
  viability at 1 %: 0%
spermatozoïdes; [3]
  viability at 0.4 %: 0.8 ± 1.2%
  viability at 0.6 %: 2.2 ± 4.5%
  viability at 0.8 %: 0%
  viability at 1 %: 0%
spermatozoïdes; [4]
  viability at 0.4 %: 0.8 ± 1%
  viability at 0.6 %: 0.4 ± 0.9%
  viability at 0.8 %: 0%
  viability at 1 %: 0%
E. coli ATCC 11229; Conc. 0,1 % (vol/vol), 1 min
  croissance: +
E. coli ATCC 11229; Conc. 0,1 % (vol/vol), 3 min
  croissance: +
E. coli ATCC 11229; Conc. 0,1 % (vol/vol), 5 min
  croissance: +
E. coli ATCC 11229; Conc. 0,1 % (vol/vol), 15 min
  croissance: +
E. coli ATCC 11229; Conc. 0,1 % (vol/vol), 30 min
  croissance: +
E. coli ATCC 11229; Conc. 0,1 % (vol/vol), 60 min
  croissance: +
E. coli ATCC 11229; Conc. 0,05 % (vol/vol), 1 min
  croissance: +
E. coli ATCC 11229; Conc. 0,5 % (vol/vol), 1 min
  croissance: +
E. coli ATCC 11229; Conc. 0,05 % (vol/vol), 3 min
  croissance: +
E. coli ATCC 11229; Conc. 0,5 % (vol/vol), 3 min
  croissance: +
E. coli ATCC 11229; Conc. 0,05 % (vol/vol), 5 min
  croissance: +
E. coli ATCC 11229; Conc. 0,5 % (vol/vol), 5 min
  croissance: +
E. coli ATCC 11229; Conc. 0,05 % (vol/vol), 15 min
  croissance: +
E. coli ATCC 11229; Conc. 0,5 % (vol/vol), 15 min
  croissance: +
E. coli ATCC 11229; Conc. 0,05 % (vol/vol), 30 min
  croissance: +
E. coli ATCC 11229; Conc. 0,5 % (vol/vol), 30 min
  croissance: +
E. coli ATCC 11229; Conc. 0,05 % (vol/vol), 60 min
  croissance: +
E. coli ATCC 11229; Conc. 0,5 % (vol/vol), 60 min
  croissance: +
E. coli ATCC 11229; Conc. 1 % (vol/vol), 1 min
  croissance: +
E. coli ATCC 11229; Conc. 1 % (vol/vol), 3 min
  croissance: +
E. coli ATCC 11229; Conc. 1 % (vol/vol), 5 min
  croissance: +
E. coli ATCC 11229; Conc. 1 % (vol/vol), 15 min
  croissance: +
E. coli ATCC 11229; Conc. 1 % (vol/vol), 30 min
  croissance: +
E. coli ATCC 11229; Conc. 1 % (vol/vol), 60 min
  croissance: +
E. coli ATCC 11229; Conc. 5 % (vol/vol), 1 min
  croissance: +
E. coli ATCC 11229; Conc. 5 % (vol/vol), 3 min
  croissance: +
E. coli ATCC 11229; Conc. 5 % (vol/vol), 5 min
  croissance: +
E. coli ATCC 11229; Conc. 5 % (vol/vol), 15 min
  croissance: -
E. coli ATCC 11229; Conc. 5 % (vol/vol), 30 min
  croissance: -
E. coli ATCC 11229; Conc. 5 % (vol/vol), 60 min
  croissance: -
E. coli ATCC 11229; Conc. 10 % (vol/vol), 1 min
  croissance: +
E. coli ATCC 11229; Conc. 10 % (vol/vol), 3 min
  croissance: +
E. coli ATCC 11229; Conc. 10 % (vol/vol), 5 min
  croissance: -
E. coli ATCC 11229; Conc. 10 % (vol/vol), 15 min
  croissance: -
E. coli ATCC 11229; Conc. 10 % (vol/vol), 30 min
  croissance: -
E. coli ATCC 11229; Conc. 10 % (vol/vol), 60 min
  croissance: -
E. coli ATCC 11229; Conc. 25 % (vol/vol), 1 min
  croissance: -
E. coli ATCC 11229; Conc. 25 % (vol/vol), 3 min
  croissance: -
E. coli ATCC 11229; Conc. 25 % (vol/vol), 5 min
  croissance: -
E. coli ATCC 11229; Conc. 25 % (vol/vol), 15 min
  croissance: -
E. coli ATCC 11229; Conc. 25 % (vol/vol), 30 min
  croissance: -
E. coli ATCC 11229; Conc. 25 % (vol/vol), 60 min
  croissance: -

## [H]/N=C(\N/C(=N/[H])NCCCCCCNC(=N)NC(=N)Nc1ccc(Cl)cc1)Nc1ccc(Cl)cc1 [Chlorhexidine, digluconate de chlorhexidine, reference compound]
spermatozoïdes; [1]
  viability at 0.5 %: 77 ± 10.8%
spermatozoïdes; [2]
  viability at 0.5 %: 77.2 ± 5.6%
spermatozoïdes; [3]
  viability at 0.5 %: 78 ± 5.7%
spermatozoïdes; [4]
  viability at 0.5 %: 75.5%
E. coli ATCC 11229; Conc. 0,1 % (vol/vol), 1 min
  croissance: +
E. coli ATCC 11229; Conc. 0,1 % (vol/vol), 3 min
  croissance: +
E. coli ATCC 11229; Conc. 0,1 % (vol/vol), 5 min
  croissance: +
E. coli ATCC 11229; Conc. 0,1 % (vol/vol), 15 min
  croissance: +
E. coli ATCC 11229; Conc. 0,1 % (vol/vol), 30 min
  croissance: +
E. coli ATCC 11229; Conc. 0,1 % (vol/vol), 60 min
  croissance: +
E. coli ATCC 11229; Conc. 0,05 % (vol/vol), 1 min
  croissance: +
E. coli ATCC 11229; Conc. 0,5 % (vol/vol), 1 min
  croissance: +
E. coli ATCC 11229; Conc. 0,05 % (vol/vol), 3 min
  croissance: +
E. coli ATCC 11229; Conc. 0,5 % (vol/vol), 3 min
  croissance: +
E. coli ATCC 11229; Conc. 0,05 % (vol/vol), 5 min
  croissance: +
E. coli ATCC 11229; Conc. 0,5 % (vol/vol), 5 min
  croissance: +
E. coli ATCC 11229; Conc. 0,05 % (vol/vol), 15 min
  croissance: +
E. coli ATCC 11229; Conc. 0,5 % (vol/vol), 15 min
  croissance: +
E. coli ATCC 11229; Conc. 0,05 % (vol/vol), 30 min
  croissance: +
E. coli ATCC 11229; Conc. 0,5 % (vol/vol), 30 min
  croissance: +
E. coli ATCC 11229; Conc. 0,05 % (vol/vol), 60 min
  croissance: +
E. coli ATCC 11229; Conc. 0,5 % (vol/vol), 60 min
  croissance: +
E. coli ATCC 11229; Conc. 1 % (vol/vol), 1 min
  croissance: +
E. coli ATCC 11229; Conc. 1 % (vol/vol), 3 min
  croissance: +
E. coli ATCC 11229; Conc. 1 % (vol/vol), 5 min
  croissance: +
E. coli ATCC 11229; Conc. 1 % (vol/vol), 15 min
  croissance: +
E. coli ATCC 11229; Conc. 1 % (vol/vol), 30 min
  croissance: +
E. coli ATCC 11229; Conc. 1 % (vol/vol), 60 min
  croissance: +
E. coli ATCC 11229; Conc. 5 % (vol/vol), 1 min
  croissance: +
E. coli ATCC 11229; Conc. 5 % (vol/vol), 3 min
  croissance: +
E. coli ATCC 11229; Conc. 5 % (vol/vol), 5 min
  croissance: +
E. coli ATCC 11229; Conc. 5 % (vol/vol), 15 min
  croissance: +
E. coli ATCC 11229; Conc. 5 % (vol/vol), 30 min
  croissance: -
E. coli ATCC 11229; Conc. 5 % (vol/vol), 60 min
  croissance: -
E. coli ATCC 11229; Conc. 10 % (vol/vol), 1 min
  croissance: +
E. coli ATCC 11229; Conc. 10 % (vol/vol), 3 min
  croissance: +
E. coli ATCC 11229; Conc. 10 % (vol/vol), 5 min
  croissance: +
E. coli ATCC 11229; Conc. 10 % (vol/vol), 15 min
  croissance: -
E. coli ATCC 11229; Conc. 10 % (vol/vol), 30 min
  croissance: -
E. coli ATCC 11229; Conc. 10 % (vol/vol), 60 min
  croissance: -
E. coli ATCC 11229; Conc. 25 % (vol/vol), 1 min
  croissance: +
E. coli ATCC 11229; Conc. 25 % (vol/vol), 3 min
  croissance: +
E. coli ATCC 11229; Conc. 25 % (vol/vol), 5 min
  croissance: +
E. coli ATCC 11229; Conc. 25 % (vol/vol), 15 min
  croissance: -
E. coli ATCC 11229; Conc. 25 % (vol/vol), 30 min
  croissance: -
E. coli ATCC 11229; Conc. 25 % (vol/vol), 60 min
  croissance: -
